# In patent US9493468B2, “Antifungal 5,6-dihydro-4H-pyrrolo[1,2-a][1,4]benzo-diazepines and 6H-pyrrolo[1,2-a][1,4]benzodiazepines substituted with heterocyclic derivatives” (Janssen Pharmaceutica NV, priority 2011, dated 2016):
# Assays:
# Assay type in all cases: cell-based
# Microsporum canis = test: Antifungal activity in vitro, resazurin growth inhibition: Microsporum canis (B68128)
# Protocol: (§1) The standard susceptibility screen is performed in 96-well plates (U-bottom, Greiner Bio-One). Serial dilutions (2-fold or 4-fold) of 20 mM compound stock solutions are made in 100% DMSO, followed by an intermediate dilution step in water. These serial dilutions (10 μl) are then spotted onto test-plates that can be stored in the dark at 4° C. for a maximum period of 2 weeks. An adequate broad dose-range is included with 64 μM as the highest in-test concentration. The culture medium RPMI-1640 is supplemented with L-glutamine, 2% glucose and buffered with 3-(N-morpholino)-propanesulfonic acid (MOPS) at pH 7.0±0.1.
# (§2) The different fungal species/isolates (Table 3a) are cryopreserved and 1/1000 diluted in medium just prior to use. A standard inoculum of 200 μl containing 10^3 colony-forming unit (cfu) is then added to each well. A positive control (100% growth=fungal culture without antifungal) and a negative control (0% growth ═RPMI-MOPS medium) are included on each plate. Optimal incubation time and temperature are dependent on the fungal species and vary from 24 h for yeasts (37° C.) to one week or more for dermatophytes (27° C.). Inhibition of fungal growth is measured after adding 10 μl of 0.005% (w/v) resazurin (Sigma Aldrich) to each well, based on the principle that living cells convert the non-fluorescent blue resazurin into the pink and fluorescent resorufin, allowing fluorimetric reading (λex 550 nm and λem 590 nm) after an additional incubation period (‘resa’ time mentioned in Table 3a).
# Cryptococcus neoformans = test: Antifungal activity in vitro, resazurin growth inhibition: Cryptococcus neoformans (B66663)
# Protocol: as §1, §2
# Sporothrix schenkii = test: Antifungal activity in vitro, resazurin growth inhibition: Sporothrix schenkii (B62482)
# Protocol: as §1, §2
# Candida parapsilosis = test: Antifungal activity in vitro, resazurin growth inhibition: Candida parapsilosis (B66126)
# Protocol: as §1, §2
# Aspergillus fumigatus = test: Antifungal activity in vitro, resazurin growth inhibition: Aspergillus fumigatus (B42928)
# Protocol: as §1, §2
# Trichophyton rubrum = test: Antifungal activity in vitro, resazurin growth inhibition: Trichophyton rubrum (B68183)
# Protocol: as §1, §2
# [1] = test system: Trichophyton mentagrophytes; test: Antifungal activity in vitro, resazurin growth inhibition: Trichophyton mentagrophytes (B70554)
# Protocol: as §1, §2
Structure (SMILES),"Inf. B: Microsporum canis B68128, pIC50 (Microsporum canis)","Inf. F: Cryptococcus neoformans B66663, pIC50 (Cryptococcus neoformans)","Inf. A: Sporothrix schenkii B62482, pIC50 (Sporothrix schenkii)","Inf. D: Candida parapsilosis B66126, pIC50 (Candida parapsilosis)","Inf. E: Aspergillus fumigatus B42928, pIC50 (Aspergillus fumigatus)","Inf. C: Trichophyton rubrum B68183, pIC50 (Trichophyton rubrum)","Inf. G: Trichophyton mentagrophytes B70554, pIC50 [1]"
CCn1cc(C2=NCc3cc(Cl)cc(Cl)c3-n3cccc32)cn1 [Compound 62],4.59,5.15,4.51,4.23,4.70,5.22,4.86
Cc1ccc2oc(C3=NCc4c(Cl)cc(Cl)cc4-n4cccc43)cc2c1 [Compound 136],4.41,<4.19,<4.19,<4.19,<4.19,5.67,<4.19
Cl.FC(F)(F)c1ncc(C2NCc3c(Cl)cccc3-n3cccc32)cn1 (racemic) [Compound 26],4.92,<4.19,<4.19,<4.19,<4.19,5.10,4.44
COc1ccc2oc(C3=NCc4ccc(Cl)cc4-n4cccc43)cc2c1 [Compound 147],5.66,<4.19,<4.19,<4.19,<4.19,5.35,<4.19
CCc1csc(C2=NCc3c(Cl)cc(Cl)cc3-n3cccc32)n1 [Compound 69],4.71,<4.19,<4.19,<4.19,<4.19,5.09,<4.19
Cc1ccc2cc(C3=NCc4c(F)cc(F)cc4-n4cccc43)ccc2n1 [Compound 114],<4.19,<4.19,<4.19,<4.19,<4.19,5.75,<4.19
Fc1cc(F)c2c(c1)-n1cccc1C(c1ccc3scnc3c1)=NC2 [Compound 190],5.56,4.93,<4.19,<4.19,<4.19,6.14,5.31
Cc1cccc2c1CNC(c1cc3ccccc3o1)c1cccn1-2.Cl (racemic) [Compound 32],5.70,4.39,4.35,<4.19,<4.19,6.10,5.70
Cl.FC(F)(F)c1ccc(C2NCc3ccccc3-n3cccc32)cn1 (racemic) [Compound 15],4.25,4.92,<4.19,<4.19,<4.19,4.70,4.56
Cc1ccc2cc(C3NCc4ccccc4-n4cccc43)oc2c1.Cl (racemic) [Compound 38],5.15,<4.19,4.40,<4.19,4.41,5.22,5.22
Fc1cccc2c1CN=C(c1ccc3sc(C(F)(F)F)nc3c1)c1cccn1-2 [Compound 192],<4.19,4.81,<4.19,<4.19,<4.19,4.29,5.03
